{"source": "patent US20090130229A1", "about": "“Antitumor uses of compound” (Cell Therapeutics, Inc., priority 2002, published 2009)", "key": {"[1]": {"tested_on": "TT medullary thyroid carcinoma xenografts", "assay": "Antitumor activity in nude mice harboring TT xenografts", "assay_type": "in vivo", "settings": "for TWI (tumor weight inhibition): 10 consecutive days", "method": "FIG. 3. Antitumor activity of Cpd 1 in nude mice harboring TT medullary thyroid carcinoma xenografts. Drug treatment started 25 days after s.c. inoculum of the tumor cells. Cpd 1 was delivered per os at 50 or 100 mg/Kg, twice in a day (2qd), for 10 consecutive days (indicated by arrows). Control mice received the vehicle. […] TWI were 60% (P<0.005) and 80% (P<0.0005) for the 50 mg/Kg and 100 mg/Kg doses, respectively.\nAll experiments were carried out using female athymic nude CD-1 mice, 8-11-weeks old (Charles River, Calco, Italy). Mice were maintained in laminar flow rooms with constant temperature and humidity. Experimental protocols were approved by the Ethic Committee for Animal Experimentation of the Istituto Nazionale per lo Studio e la Cura dei Tumori (Milan, Italy), according to the United Kingdom Coordinating Committee on Cancer Research Guidelines (Workman P. et al., British Journal of Cancer, 77, 1, 1998).\nThe MTC cells TT (1.6×10^7 cells) were s.c. inoculated in mice as a cell suspension from in vitro cell culture. Each control or drug-treated group included 8-10 tumors. Tumor cells were injected on day 0, and tumor growth was followed by biweekly measurements of tumor diameters with a Vernier caliper. Tumor weight (TW) was calculated according to the formula: TW (mg)=tumor volume (mm^3)=d^2xD/2, where d and D are the shortest and the longest diameter, respectively. Drug treatment started when tumors were just measurable (mean TW about 50 mg), 25 days after the inoculum of tumor cells. Cpd1 was dissolved in 5% ethanol, 5% Cremophor EL, 90% saline (0.9% NaCl) and delivered per os twice in a day (2qd) by a daily schedule for 10 days. Control mice received the solvent solution.\nDrug efficacy was assessed as percentage TW inhibition (TWI % in drug-treated versus control mice expressed as: TWI %=100−(mean TW treated/mean TW control×100). For statistical analysis, TW in control and treated mice were compared on the day of TWI % evaluation, by Student's t test (two-tailed). P values less than 0.05 were considered statistically significant."}, "Ret/MEN2A(C634W)": {"biological_target": "T1, Ret/MEN2A(C634W) (Homo sapiens, UniProt P07949, C634W)", "T1 construct": "endogenous in cells; host or cells: TT (human medullary thyroid carcinoma)", "T1 sequence (P07949 29-1114 C634W)": "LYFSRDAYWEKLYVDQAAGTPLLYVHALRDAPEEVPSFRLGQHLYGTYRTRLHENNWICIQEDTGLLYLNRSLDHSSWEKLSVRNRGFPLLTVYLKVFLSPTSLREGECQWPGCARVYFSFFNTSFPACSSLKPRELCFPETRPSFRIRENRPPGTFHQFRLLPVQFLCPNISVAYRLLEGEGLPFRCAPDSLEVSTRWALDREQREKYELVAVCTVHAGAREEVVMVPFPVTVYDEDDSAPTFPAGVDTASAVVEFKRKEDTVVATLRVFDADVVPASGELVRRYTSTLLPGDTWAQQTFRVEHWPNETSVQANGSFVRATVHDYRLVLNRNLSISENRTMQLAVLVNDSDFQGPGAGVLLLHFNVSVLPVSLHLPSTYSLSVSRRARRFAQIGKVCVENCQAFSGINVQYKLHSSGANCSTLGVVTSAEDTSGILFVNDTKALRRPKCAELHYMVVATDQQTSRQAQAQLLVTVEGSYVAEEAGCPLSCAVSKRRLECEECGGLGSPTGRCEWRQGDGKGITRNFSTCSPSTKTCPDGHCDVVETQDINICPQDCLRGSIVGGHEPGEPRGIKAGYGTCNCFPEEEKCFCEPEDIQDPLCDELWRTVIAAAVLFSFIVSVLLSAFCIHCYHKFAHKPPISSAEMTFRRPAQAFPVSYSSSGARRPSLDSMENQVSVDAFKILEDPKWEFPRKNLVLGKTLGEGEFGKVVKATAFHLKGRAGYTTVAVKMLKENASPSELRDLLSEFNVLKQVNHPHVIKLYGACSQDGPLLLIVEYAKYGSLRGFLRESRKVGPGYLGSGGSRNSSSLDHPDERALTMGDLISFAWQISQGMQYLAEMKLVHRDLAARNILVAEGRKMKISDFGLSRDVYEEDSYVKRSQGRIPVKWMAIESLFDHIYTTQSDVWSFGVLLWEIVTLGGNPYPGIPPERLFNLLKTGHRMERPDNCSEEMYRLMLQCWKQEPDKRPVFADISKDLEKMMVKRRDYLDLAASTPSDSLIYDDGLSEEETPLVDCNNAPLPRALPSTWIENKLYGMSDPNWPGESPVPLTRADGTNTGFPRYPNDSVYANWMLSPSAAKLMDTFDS", "assay": "Ret autophosphorylation and expression in TT cells (Western blotting)", "assay_type": "cell-based", "settings": "24 h", "method": "FIG. 2. Effects of Cpd1 on human MTC cell lines harboring MEN2-associated RET mutants. A) Inhibition of Ret autophosphorylation. TT and MZ-CRC-1 cells, expressing respectively RET/MEN2A(C634W) and RET/MEN2B(M918T), were treated with the indicated concentrations of Cpd1, for 24 h. Control cells (C) received the solvent. Whole cell extracts were processed for Western blotting and probed with anti-pTyr and anti-Ret antibodies. […] B) Antiproliferative effect. TT and MZ-CRC-1 cells were treated with increasing concentrations of Cpd 1 for 7 days and then counted with a Coulter Counter.\nThe following human medullary thyroid carcinoma (MTC) cell lines were used in this study. The TT cell line derived from a MEN2A-associated MTC characterized by expression of the RET oncogene carrying the mutation C634W. […]\nFor whole-cell extract preparation, cells were lysed in sodium dodecyl sulfate (SDS) sample buffer (62.5 mM Tris-HCl (pH 6.8), 2% SDS) with 1 mM PMSF, 10 μg/ml pepstatin, 12.5 μg/ml leupeptin, 100 KIU aprotinin, 1 mM sodium orthovanadate, 1 mM sodium molybdate. Protein concentration was determined in appropriately diluted aliquots by the bicinchionic acid (BCA) method (Pierce, Rockford, Ill.), then samples were adjusted to a final concentration of 10% glycerol, 5% β-mercaptoethanol, 0.001% bromophenol blue. […]"}}}
{"smiles": "COc1cc2c(cc1OC)/C(=C\\c1ccc(O)cc1)C(=O)N2", "note": "[Cpd 1, (E)-1,3-dihydro-5,6-dimethoxy-3-[(4-hydroxyphenyl)methylene]-2H-indol-2-one]", "values": [{"measurement": "TWI (tumor weight inhibition)", "setting": "[1]; 50 mg/Kg per os, 2qd, P<0.005", "result": 60, "unit": "%"}, {"measurement": "TWI (tumor weight inhibition)", "setting": "[1]; 100 mg/Kg per os, 2qd, P<0.0005", "result": 80, "unit": "%"}, {"measurement": "Tumor growth", "setting": "[1]; 50 or 100 mg/Kg per os, 2qd, 10 days", "result": "significant dose-dependent inhibition"}, {"measurement": "Tumor weight inhibition (TWI) reached", "setting": "[1]; oral, daily dose of 50-100 mg/Kg (twice a day)", "result": 80, "unit": "%"}, {"measurement": "Toxicity", "setting": "[1]; oral, daily dose of 50-100 mg/Kg (twice a day), nude mice", "result": "without inducing toxicity"}, {"measurement": "Tyrosine phosphorylation of Ret receptor", "setting": "Ret/MEN2A(C634W)", "result": "dose-dependent inhibition"}, {"measurement": "Ret receptor expression", "setting": "Ret/MEN2A(C634W); highest concentrations", "result": "reduced expression"}]}
